Measured values from US8008280B2, “Betulinol derivatives as anti-HIV agents” (priority 2004, dated 2011).
Where two headings read alike, the source gives them in different places.

What was measured:
another HIV-1 isolate = assay: Effect on 174XCEM cells chronically infected with another HIV-1 isolate; assay type: cell-based; details: chronically infected 174XCEM cells; betulin diacetate single dose 1 μg/ml
Method: Agents were also evaluated for an effect on 174XCEM cells chronically infected with another HIV-1 isolate.

HIV-1 IIIB isolate = assay: HIV-1 inhibitory effect, p24 antigen capture ELISA, acutely infected 174XCEM cells; assay type: cell-based; details: 1 μg/ml (in DMSO); 4 days culture
174XCEM = assay: Effect on cell viability, trypan blue dye exclusion; details: trypan blue dye exclusion at four days and seven days
Method: Human T-B hybridoma cell line 174XCEM was exposed to a low multiplicity of infection (“MOI”) (MOI=1.0) of stock HIV-1 IIIB isolate for 2 hours at 37° C., washed ×3 with phosphate buffered saline (“PBS”), then plated at 250,000 cells/well in the presence of various agents, shown in Table 10. Dimethyl sulfoxide (“DMSO”) buffer was used as a […] control. A commercially available synthetic peptide, thrombospondin peptide (“TSP”), known as having HIV-1 inhibitory activity, was used as an “inhibitory activity” control. Two HIV isolates were used, a patient isolate (“child HIV”), and the standard CXCR4 co-receptor utilizing isolate IIIB.
The cell samples were assessed by trypan blue dye exclusion at four days and seven days.

AZT-resistant strain = assay: Anti-HIV activity against AZT-resistant patient isolates in MT-2 cells; assay type: cell-based
From the text: These isolates were used to infect MT-2 cells in vitro.

[1] = In vivo tolerability in mice with prostate cancer cell xenografts; details: final concentration of 22% ethanol and 2×10−3 mol per liter of betulonic acid
[2] = Solubilization in PBS containing human γ-globulin, human albumin and ethanol; assay type: physicochemical; details: 1 × 10^−3 mol/L
cells = details: cited from earlier work
[3] = Solubility in DMSO diluted with culture medium (GC, standard solubility curve); assay type: physicochemical
Method: The residue was dissolved in chloroform analyzed on GC.
Ethyl ether was then evaporated.

[4] = Solubility of betulonic acid in human serum; assay type: physicochemical; details: 1.34 mg in 31 μL neat ethanol diluted with 700 μL human serum; 4.2% final ethanol
[5] = test system: carcinoma cell line CO-115 of the large intestine; details: carcinoma cell line CO-115 (Ukkonen et al.); cited from earlier work
[6] = 1.0 mg in culture medium containing 20% DMSO

C=C(C)[C@@H]1CC[C@]2(C=O)CC[C@]3(C)[C@H](CC[C@@H]4[C@@]5(C)CCC(=O)C(C)(C)[C@@H]5CC[C@]43C)[C@@H]12 [betulone aldehyde, Betulon Aldehyde]
inhibition (release of virus from chronically infected cells) (another HIV-1 isolate): minimal effect

C=C(C)C1CCC2(COC)CCC3(C)C(CCC4C5(C)CCC(OC)C(C)(C)C5CCC43C)C12 (stereo not shown) [betulin dimethyl ether, Betulin Dimethyl ether]
anti-HIV-1 activity (HIV-1 gag (p24) antigen, OD units, FIG. 6) (HIV-1 IIIB isolate): anti-HIV-1 activity superior to that previously disclosed in the art for other betulinol derivatives | effect on total cell number or cell viability (174XCEM): no effect on total cell number or cell viability

C=C(C)[C@@H]1CC[C@]2(CO)CC[C@]3(C)[C@H](CC[C@@H]4[C@@]5(C)CC[C@H](OC(C)=O)C(C)(C)[C@@H]5CC[C@]43C)[C@@H]12 [3-acetoxy betulin, 3-Acetoxy Betulin]
anti-HIV-1 activity (HIV-1 gag (p24) antigen, OD units, FIG. 6) (HIV-1 IIIB isolate): anti-HIV-1 activity superior to that previously disclosed in the art for other betulinol derivatives | effect on total cell number or cell viability (174XCEM): no effect on total cell number or cell viability

Cc1cn([C@H]2C[C@H](N=[N+]=[N-])[C@@H](CO)O2)c(=O)[nH]c1=O [AZT, 3′-azido-3′-deoxythymidine, reference compound]
inhibition in the HIV infection, AZT-resistant strain (AZT-resistant strain; day 5 (FIG. 14)): ineffective

C=C(C)C1CCC2(CO)CC[C@]3(C)[C@H](CC[C@@H]4[C@@]5(C)CCC(O)C(C)(C)[C@@H]5CC[C@]43C)C12 (stereo partly drawn) [betulinol, lup-20(29)-ene-3β, 28-diol]
inhibition (release of virus from chronically infected cells) (another HIV-1 isolate): minimal effect

C=C(C)C1CCC2(C(=O)O)CC[C@]3(C)[C@H](CC[C@@H]4[C@@]5(C)CCC(=O)C(C)(C)[C@@H]5CC[C@]43C)C12 (stereo partly shown) [betulonic acid, Betulonic Acid]
inhibition in the HIV infection, AZT-resistant strain (AZT-resistant strain; day 5 (FIG. 14)): 44% | inhibition in the HIV infection, AZT-resistant strain (AZT-resistant strain; day 8 (FIG. 15)): increased further | tolerability [1]: well tolerated | Observation ([2]; 1.0 mg, ethanol 220 μL, γ-globulin 1.48 mL, albumin 0.49 mL): Cloudy | Observation ([2]; 1.3 mg, ethanol 280 μL, γ-globulin (27 mg/mL in PBS) 2.50 mL, albumin (42 mg/mL in PBS) 0 mL): Suspension | cytotoxicity, interfering with the proliferation of cells (cells): cytotoxic | Con. in culture medium containing 20% DMSO [3]: 0.001 mol/L | amount of betulonic acid dissolved ([3]; 3 mg in culture medium containing 10% FBS with 1% DMSO, supernatant after centrifugation): 0.4 mg | Observation [4]: Clear Solution

C=C(C)C1CCC2(C(=O)NCCCCC(NC(=O)C(CCCCNC(=O)C34CCC(C(=C)C)C3[C@@H]3CC[C@H]5[C@]6(C)CCC(=O)C(C)(C)[C@H]6CC[C@]5(C)[C@@]3(C)CC4)NC(=O)OC(C)(C)C)C(=O)O)CC[C@]3(C)[C@H](CC[C@@H]4[C@@]5(C)CCC(=O)C(C)(C)[C@@H]5CC[C@]43C)C12 (stereo partly shown) [Boc-Dimer]
Concentration of drug (mg/mL) [3, 6]: 0.6 mg/mL | Concentration of drug (mol/L) [3, 6]: 0.0005 mol/L | Con. in culture medium containing 20% DMSO ([3]; calculated (nominal) concentration): 0.0005 mol/L

C=C(C)[C@@H]1CC[C@]2(C(=O)O)CC[C@]3(C)[C@H](CC[C@@H]4[C@@]5(C)CC[C@H](O)C(C)(C)[C@@H]5CC[C@]43C)[C@@H]12 [betulinic acid, Betulinic Acid]
cytotoxic activity, LD 50 [5]: 0.375 mg/mL

C=C(C)[C@@H]1CC[C@]2(COC(C)=O)CC[C@]3(C)[C@H](CC[C@@H]4[C@@]5(C)CC[C@H](OC(C)=O)C(C)(C)[C@@H]5CC[C@]43C)[C@@H]12 [betulin diacetate, Betulin Diacetate]
inhibition (release of virus from chronically infected cells) (another HIV-1 isolate): 20%

C=C(C)[C@@H]1CC[C@]2(COC(C)=O)CC[C@]3(C)[C@H](CC[C@@H]4[C@@]5(C)CC[C@H](O)C(C)(C)[C@@H]5CC[C@]43C)[C@@H]12 [28-acetoxy betulin, 28-Acetoxy Betulin]
anti-HIV-1 activity (HIV-1 gag (p24) antigen, OD units, FIG. 6) (HIV-1 IIIB isolate): anti-HIV-1 activity superior to that previously disclosed in the art for other betulinol derivatives | effect on total cell number or cell viability (174XCEM): no effect on total cell number or cell viability

C=C(C)C1CCC2(C(=O)NCCCCC(NC(=O)OC(C)(C)C)C(=O)O)CC[C@]3(C)[C@H](CC[C@@H]4[C@@]5(C)CCC(=O)C(C)(C)[C@@H]5CC[C@]43C)C12 (stereo partly shown) [Boc-Monomer]
tolerability [1]: well tolerated | Con. in culture medium containing 20% DMSO [3]: 0.001 mol/L
